Test results from patent publication US20100298434A1, “NEUROPROTECTION AND PREVENTION OF DOPAMINERGIC CELL DEATH BY TARGETING NUR77 TRANSLOCATION” (priority 2009, published 2010).

Legend:
Nur77 = Nur77 subcellular distribution (nuclei-cytoplasmic fractioning, Western blot) in PC12 cells; assay type: cell-based, rat
Procedure: (§1) PC12 cells were obtained from ATCC CRL 1721 (VA, USA) and were grown in phenol red-free RPMI 1640 medium supplemented with 5% fetal calf serum (FCS), 10% horse serum and gentamicin (50 μg/ml). They were cultured on Primaria 6-well plates (BD Falcon, Ontario, Canada) for RT-PCR experiments and immunoblotting; on Primaria 96-wells plates for LDH cytoxicity experiments and finally on poly-L-lysine-coated circular glass coverslips for immunocytofluorescence assays. Cells were fed fresh medium every 3 days and maintained at 37° C. in a humidified 5% CO2 atmosphere. […] Control conditions were without toxin. […] For the present study, kinetic time periods were: 0 h, 3 h, 6 h, 9 h, 12 h and 24 h. After each experiment, culture medium was harvested for cytotoxicity detection and cells were collected for RT-PCR and ICF/Fractioning (Gelinas & Martinoli 2002; Gagne et al. 2003; Gelinas et al. 2004; Chiasson et al. 2006).
PC12 cells were grown and treated in 6-wells plates. We used a nuclear extraction kit (Active Motif, Carlsbad, Calif.) to separate cytoplasmic protein content from nuclear protein content. Briefly, cells were washed in wells with a mixture of PBS and phosphatase inhibitors, and then harvested in centrifuge tubes. Hypotonic buffer swelled cytoplasmic membrane, which an afterward mild detergent ruptured.
Centrifugation at 14,000×g pelleted the intact nuclei, and soluble material was preserved as the cytoplasmic fraction. Nuclei were the lysed with the provided lysis buffer. Protein dosage was performed with a bicinchoninic acid (BCA)-based SDS-compatible Protein Assay Kit (Pierce, Rockfort, Ill.) on each fraction of each sample.
Equal amounts of nuclei or cytoplasmic protein fractions were loaded onto a 10% polyacrylamide-SDS gel. After electrophoretic separation (180 volts, 45 min.) the polyacrylamide gels were transferred onto […] (PVDF) membranes (0.22 μm pore size, Bio-Rad) at 50 V for 2 h. The membranes were blocked with 5% non-fat powder milk for 1 h. […] Quantitative analysis was performed with the Fluor Chem SP software.

PC12 cells [1] = experiment: LDH cytotoxicity in PC12 cells; assay type: cell-based
Procedure: They were cultured on Primaria 6-well plates (BD Falcon, Ontario, Canada) for RT-PCR experiments and immunoblotting; on Primaria 96-wells plates for LDH cytoxicity experiments and finally on poly-L-lysine-coated circular glass coverslips for immunocytofluorescence assays. Cells were fed fresh medium every 3 days and maintained at 37° C. in a humidified 5% CO2 atmosphere. […] Control conditions were without toxin.
Briefly, media were collected and centrifuged at 800×g at 4° C. for 2 min. The cell-free supernatant (100 μl) was then used to determine LDH activity by measuring the absorbance at a wavelength of 490 nm (A490) on a microplate reader (Multiscan Ascent Microplate reader, Thermolab System, Franklin Mass.) according to the working procedures of Roche's protocol. Total cellular LDH was determined by lysing cells with 1% Triton X-100.

PC12 cells [2] = experiment: TUNEL/DAPI apoptosis in PC12 cells; assay type: cell-based, rat; conditions: 6-OHDA, at 12 and 24 h
Procedure: as §1
PC12 cells were grown and treated on circular glass coverslips, then fixed in 4% paraformaldehyde for 1 hour at 4° C. […] Images were acquired with an Olympus IX-70 inverted microscope with a high-pressure mercury burner and necessary filter cubes (Olympus U-MNUV, U-MNIBA and U-MWIG), and were analyzed with Bio-Rad's QuantityOne software. […]

Nur77 mRNA = experiment: 6-hydroxydopamine lesions in rats, Nur77 mRNA in situ hybridization in substantia nigra; assay type: in vivo; conditions: intracerebral 6-OHDA 12 μg/3 μl
Procedure: (§2) Fifteen male Sprague—Dawley albino rats (Charles River, Montreal, Canada) weighing 250-275 g at the beginning of the experiment were used in this study. They were housed two per cage in a temperature-controlled environment maintained under a 12-h light/dark cycle with ad libitum access to food and water. Handling of the rats was performed in accordance with the Canadian Guide for the Care and Use of Laboratory animals and all procedures were approved by the Institutional Animal Care Committee of Laval University. All efforts were made to minimize the number of animals used and their suffering. Rats were anaesthetized in an induction chamber with 4% isoflurane in 95% O2/5% CO2 before being transferred to a stereotaxic frame and maintained at 1.5-3% isoflurane. A sagittal cut exposed bregma and a hole was drilled.
Cryostat-cut brain sections (12 μm) were mounted on Superfrost slides (Fisher Scientific, Toronto, ON, Canada) and stored at −80° C. Specific [^35S]UTP-labeled complementary.
RNA (cRNA) probes were used and preparation of the Nur77 probe was performed as described previously (Beaudry et al., 2000). The antisense cRNA probe for Nur77 stems from a 2.4-kb EcoRI fragment of a full-length rat Nur77 cDNA subcloned into pBluescript SK-1 and linearized with BamHI. […]

substantia nigra neurons = experiment: 6-hydroxydopamine lesions in rats, Fluoro-Jade B staining of degenerating neurons; assay type: in vivo; conditions: intracerebral 6-OHDA
Procedure: as §2
The brain sections were mounted on gelatin-coated slides (Brain Research Laboratories, Newton, Mass.) and air-dried overnight. They were dehydrated in ascending grades of ethanol, hydrated in descending grades of ethanol and finally rinsed in milliQ water. Afterwards, the sections were dipped in a 0.06% potassium permanganate solution bath for 10 min and washed in milliQ water. […] Degenerating neurons and fibers appeared green and nuclei emerged blue in fluorescence.

nigral TH neurons = experiment: MPTP lesions in mice, stereological counts of TH-immunoreactive neurons; assay type: in vivo; conditions: Nur77 (+/+) mice, 7 i.p. injections MPTP-HCl 20 mg/kg, 14 days after last injection
Source text: Wild-type (Nur77(+/+)) male (C57BL/6, weighing 20-25 g) mice were purchased from Charles River, Canada. Nur77 knockout (Nur77(−/−)) mice were developed and graciously provided by Dr Jeff Milbrandt at the Washington University, St. Louis, Mo., USA (Lee et al., 1995). These mice are healthy and reproduce normally (Crawford et al., 1995; Lee et al., 1995). They were produced in a mixed background and have been backcrossed into the C57BL/6 strain for at least ten generations to reduce genetic background heterogeneity (Jeff Milbrandt, personal communication). We maintain a Nur77(−/−) mouse colony at the animal care facility of our research center. Young adult Nur77(−/−) male mice weighing 20-25 g were used for present experiments. All mice were housed three or four per cage in a temperature-controlled environment and maintained under a 12-h light-dark cycle with ad libitum access to food and water.
In total, 17 mice (8 Nur77 (+/+) and 9 Nur77 (−/−)) received seven intraperitoneal (i.p.) injections of MPTP-HCl (20 mg/kg free base; Sigma, St. Louis, Mo.) dissolved in NaCl 0.9%. MPTP was administered twice on the first 2 days of the experimental protocol at an interval of 12 h and once a day on 3 subsequent days (Tremblay et al. 2006; Gibrat et al., 2010). […]
The loss of DA neurons was determined by counting TH-immunoreactive cells under bright-field illumination. […]

Q: For `C[n+]1ccc(-c2ccccc2)cc1` [MPP+, 1-methyl-4-phenylpyridinium ion], which “beginning of Nur77 protein translocation from the nucleus to the cytosol” value (Nur77; MPP+ 5 mM) is on record?
A: 6 h

Q: For `NCCc1cc(O)c(O)cc1O` [6-OHDA, 6-hydroxydopamine], which “start of Nur77 upregulation and translocation from the nucleus to the cytosol” value (Nur77; 6-OHDA 30 μM) is on record?
A: 9 h

Q: What about the “start of significant rise of cellular death (LDH activity)” value (PC12 cells [1]; PC12 cells, 10 μM 6-OHDA) of the same compound?
A: 12 h

Q: And the cell death (PC12 cells [1]; PC12 cells, 6-OHDA 30 μM, after 24 h)?
A: ≤ 70%

Q: What about the “cells showing signs of apoptosis (co-localization of DAPI and TUNEL)” value (PC12 cells [2]) of the same compound?
A: more than 90%

Q: And the “earliest time of Nur77 mRNA induction in midbrain dopaminergic neurons” value (Nur77 mRNA)?
A: 3 h

Q: And the “time at which Fluoro-Jade staining is also observed” value (substantia nigra neurons)?
A: 3 h

Q: What about the “time of maximal Fluoro-Jade staining” value (substantia nigra neurons) of the same compound?
A: 48 h

Q: How did the “6-OHDA-induced translocation of Nur77 from the nucleus to the cytosol” value (Nur77; 6-OHDA 30 μM, co-incubation with LMB 1 nM) turn out when `CCC(=C/[C@H](C)C/C=C/C(C)=C/[C@@H](C)C(=O)[C@@H](C)[C@H](O)[C@@H](C)C/C(C)=C/C(=O)O)/C=C/[C@@H]1OC(=O)C=C[C@@H]1C` [LMB, leptomycin B] was run?
A: blocked

Q: What about the PC12 cell survival (PC12 cells [1]; LMB alone) of the same compound?
A: no effect

Q: What about the “6-OHDA induced cell death” value (PC12 cells [1]; PC12 cells, co-incubation of LMB with 6-OHDA, 24 h) of the same compound?
A: significant reduction

Q: `CC/C=C\C/C=C\C/C=C\C/C=C\C/C=C\C/C=C\CCC(=O)O` [DHA, docosahexaenoic acid] was tested. Which “cytotoxicity induced by 6-OHDA” value (PC12 cells [1]; PC12 cells, 6-OHDA 30 μM, co-incubation with DHA 10^−6 M) did it give?
A: significantly reduced

Q: What about the “cytotoxicity induced by MPP+” value (PC12 cells [1]; PC12 cells, MPP+ 5 mM, co-incubation with DHA 10^−6 M) of the same compound?
A: significantly reduced

Q: With `CN1CC=C(c2ccccc2)CC1` [MPTP, 1-methyl-4-phenyl-1,2,3,6-tetrahydropyridine] as the compound, how does the “number of nigral TH neurons” value (nigral TH neurons) read?
A: significantly reduced
